Where a SMILES comes first, the peptide text is derived from it.
Columns and labels:
Assay in all cases: microbe, parasite or virus in culture
[1] = test system: A. baumannii ATCC 17978; type: cell-based, Acinetobacter baumannii
Description: (§1) Antimicrobial activity was evaluated against a panel of 18 pathogens consisting of eight Gram-negative strains (E. coli NCTC 12923, E. coli LEC001, Pseudomonas aeruginosa PAO1, P. aeruginosa NCTC 13437, Acinetobacter baumannii ATCC 17978, A. baumannii AYE, Klebsiella pneumoniae M6, K. pneumoniae NCTC 13368), four Gram-positive strains (Staphylococcus aureus ATCC 9144, S. aureus NCTC 13616, S. aureus USA300, S. aureus 1199B) and six fungi (Candida auris TDG 1912, C. albicans NCPF 8018, C. krusei NCPF 3876, C. tropicalis NCPF 8760, and C. parapsilosis NCPF 3209). Pathogens were grown in noncation adjusted Mueller Hinton broth (MHB, for bacteria) or Roswell Park Memorial Institute (RPMI 1640) + 2% glucose (for fungi) at 37 °C with 180 rpm shaking and maintained on solid media (tryptic soy agar for bacteria and Sabouraud dextrose agar for fungi). For an antibiogram, see Suppl.
(§2) The 46 peptides were serially diluted (128 to 2 μg/mL) in media down polypropylene 96-well plates. Bacteria or fungi, diluted from an overnight culture to an OD600 of 0.01, were added to the serially diluted peptides at a 1:1 ratio resulting in a starting cell density of ∼5 × 10^5 CFU/mL. Plates were incubated at 37 °C for 20 h, and the optical density was determined spectrophotometrically at 600 nm. Minimum inhibition concentrations (MICs) were determined from a minimum of three biological repeats and are reported in μg/mL as well as μM. […] The MIC50 or MIC90 is defined as the lowest peptide concentration that results in 50% or 90% growth inhibition over a 20 h treatment period, respectively.

[2] = test system: A. baumannii AYE; type: cell-based, Acinetobacter baumannii; settings: 20 h
Description: as §1, §2

[3] = test system: C. parapsilosis NCPF 3209; type: cell-based; settings: NCPF 3209, 20 h
Description: as §1, §2

[4] = test system: C. albicans NCPF 3281; type: cell-based; settings: NCPF 3281, 20 h
Description: as §1, §2

[5] = test system: C. glabrata NCPF 8018; type: cell-based; settings: NCPF 8018, 20 h
Description: as §1, §2

[6] = test system: C. tropicalis NCPF 8760; type: cell-based; settings: NCPF 8760, 20 h
Description: as §1, §2

[7] = test system: C. krusei NCPF 3876; type: cell-based; settings: NCPF 3876, 20 h
Description: as §1, §2

[8] = test system: K. pneumoniae M6; type: cell-based, Klebsiella pneumoniae
Description: as §1, §2

[9] = test system: K. pneumoniae NCTC 13368; type: cell-based, Klebsiella pneumoniae
Description: as §1, §2

[10] = test system: E. coli LEC001; type: cell-based, Escherichia coli
Description: as §1, §2

[11] = test system: E. coli NCTC 12923; type: cell-based, Escherichia coli
Description: as §1, §2

[12] = test system: S. aureus (MSSA) ATCC 9144; type: cell-based, Staphylococcus aureus; settings: ATCC 9144, 20 h
Description: as §1, §2

[13] = test system: S. aureus (MRSA) NCTC 13616; type: cell-based, Staphylococcus aureus
Description: as §1, §2

[14] = test system: S. aureus (MRSA) USA300; type: cell-based, Staphylococcus aureus; settings: USA300, 20 h
Description: as §1, §2

[15] = test system: C. auris TDG 1912; type: cell-based, Candida auris; settings: TDG 1912, 20 h
Description: as §1, §2

[16] = test system: P. aeruginosa NCTC 13437; type: cell-based, Pseudomonas aeruginosa
Description: as §1, §2

[17] = test system: P. aeruginosa PAO1; type: cell-based, Pseudomonas aeruginosa; settings: P. aeruginosa PAO1 (S); MHB, 37 °C, 20 h, OD600; min. three biological repeats
Description: as §1, §2

Compound | Modal MIC ([1]; ATCC 17978, 20 h) | Modal MIC ([2]; AYE) | Modal MIC50 [3] | Modal MIC90 [3] | Modal MIC50 [4] | Modal MIC90 [4] | Modal MIC50 [5] | Modal MIC90 [5] | Modal MIC50 [6] | Modal MIC90 [6] | Modal MIC50 [7] | Modal MIC90 [7] | Modal MIC ([11]; NCTC 12923, 20 h) | Modal MIC [12] | other results
CC[C@H](C)[C@H](NC(=O)[C@H](CCCCN)NC(=O)[C@H](CC(C)C)NC(=O)CNC(=O)[C@H](C)NC(=O)[C@H](CCCCN)NC(=O)[C@H](CC(C)C)NC(=O)[C@H](C)NC(=O)[C@H](CCCCN)NC(=O)CNC(=O)[C@H](CC(C)C)NC(=O)[C@H](Cc1ccccc1)NC(=O)[C@H](CO)NC(=O)[C@H](C)NC(=O)[C@H](CC(C)C)NC(=O)CN)C(=O)NCC(=O)N[C@@H](CO)C(=O)N[C@@H](Cc1c[nH]cn1)C(=O)N[C@@H](CC(C)C)C(=O)N[C@@H](CC(C)C)C(=O)NCC(=O)NCC(=O)N[C@@H](C)C(=O)N1CCC[C@H]1C(=O)N[C@@H](CCC(N)=O)C(=O)O [CPF-P2] (H-GLASFLGKALKAGLKIGSHLLGGAPQ-OH) | 1.4 µM | 2.9 µM | > 46 µM | > 46 µM | > 46 µM | > 46 µM | > 46 µM | > 46 µM | 5.8 µM | 5.8 µM | 23 µM | 23 µM | 2.9 µM | 1.4 µM | Modal MIC ([8]; M6, 20 h): 46 µM; Modal MIC ([9]; NCTC 13368, 20 h): 46 µM; Modal MIC ([10]; LEC001, 20 h): 5.8 µM; Modal MIC ([13]; NCTC 13616, 20 h): 1.4 µM; Modal MIC [14]: 2.9 µM; Modal MIC50 [15]: > 46 µM; Modal MIC90 [15]: > 46 µM; Modal MIC ([16]; NCTC 13437, 20 h): 46 µM
CC[C@H](C)[C@H](NC(=O)CNC(=O)[C@H](CCCCN)NC(=O)[C@H](Cc1c[nH]c2ccccc12)NC(=O)[C@H](Cc1c[nH]c2ccccc12)NC(=O)[C@@H](N)Cc1c[nH]c2ccccc12)C(=O)N[C@@H](CCCNC(=N)N)C(=O)NCC(=O)N[C@@H](Cc1ccc(O)cc1)C(=O)N[C@@H](CCCCN)C(=O)NCC(=O)NCC(=O)N[C@@H](Cc1ccc(O)cc1)C(=O)N[C@@H](CCCCN)C(=O)NCC(=O)N[C@@H](C)C(=O)N[C@@H](Cc1ccccc1)C(=O)N[C@@H](CCCCN)C(=O)N[C@@H](CCC(N)=O)C(=O)N[C@H](C(=O)N[C@@H](CCCCN)C(=O)N[C@@H](Cc1ccc(O)cc1)C(N)=O)[C@@H](C)O [W3(Os-C)a] (H-WWWKGIRGYKGGYKGAFKQTKY-NH2) | 11.7 µM | 5.9 µM | > 46.9 µM | > 46.9 µM | > 46.9 µM | > 46.9 µM | > 46.9 µM | > 46.9 µM | > 46.9 µM | > 46.9 µM | > 46.9 µM | > 46.9 µM | 23.5 µM | 11.7 µM | 
CC[C@H](C)[C@H](NC(=O)CNC(=O)[C@H](CCCNC(=N)N)NC(=O)[C@@H](N)Cc1c[nH]c2ccccc12)C(=O)N[C@@H](CCCNC(=N)N)C(=O)NCC(=O)N[C@@H](Cc1ccc(O)cc1)C(=O)N[C@@H](CCCCN)C(=O)NCC(=O)NCC(=O)N[C@@H](Cc1ccc(O)cc1)C(=O)N[C@H](C(=O)NCC(=O)N[C@@H](CCCNC(=N)N)C(=O)N[C@@H](Cc1ccccc1)C(=O)N[C@@H](CCCCN)C(=O)N[C@@H](CCC(N)=O)C(=O)N[C@H](C(=O)N[C@@H](CCCCN)C(=O)N[C@@H](Cc1ccc(O)cc1)C(N)=O)[C@@H](C)O)[C@@H](C)O [W-OmB-Ca] (H-WRGIRGYKGGYTGRFKQTKY-NH2) | 26.2 µM | 13.1 µM | > 52.5 µM | > 52.5 µM | > 52.5 µM | > 52.5 µM | > 52.5 µM | > 52.5 µM | > 52.5 µM | > 52.5 µM | > 52.5 µM | > 52.5 µM | 52.5 µM | 52.5 µM | 
CC[C@H](C)[C@H](NC(=O)CNC(=O)[C@H](CO)NC(=O)[C@@H](N)Cc1c[nH]c2ccccc12)C(=O)N[C@@H](CCCNC(=N)N)C(=O)NCC(=O)N[C@@H](Cc1ccc(O)cc1)C(=O)N[C@@H](CCCCN)C(=O)NCC(=O)NCC(=O)N[C@@H](Cc1ccc(O)cc1)C(=O)N[C@@H](CCCCN)C(=O)NCC(=O)N[C@@H](CC(C)C)C(=O)N[C@@H](Cc1ccccc1)C(=O)N[C@@H](CCCCN)C(=O)N[C@@H](CCC(N)=O)C(=O)N[C@H](C(=O)N[C@@H](CC(N)=O)C(=O)N[C@@H](Cc1ccc(O)cc1)C(N)=O)[C@@H](C)O [W-OmC-Ca] (H-WSGIRGYKGGYKGLFKQTNY-NH2) | 54.3 µM | 54.3 µM | > 54.3 µM | > 54.3 µM | > 54.3 µM | > 54.3 µM | > 54.3 µM | > 54.3 µM | > 54.3 µM | > 54.3 µM | > 54.3 µM | > 54.3 µM | 54.3 µM | 54.3 µM | 
Colistin [reference compound] |  |  |  |  |  |  |  |  |  |  |  |  |  |  | Modal MIC ([1]; A. baumannii ATCC 17978 (S), MHB, 37 °C, 20 h, OD600, min. three biological repeats): 1 µg/mL; Modal MIC ([2]; A. baumannii AYE (R), MHB, 37 °C, OD600, min. three biological repeats): 1 µg/mL; Modal MIC ([8]; K. pneumoniae M6 (S), MHB, 37 °C, 20 h, OD600, min. three biological repeats): 2 µg/mL; Modal MIC ([9]; K. pneumoniae NCTC 13368 (R), MHB, 37 °C, 20 h, OD600, min. three biological repeats): 1 µg/mL; Modal MIC ([10]; E. coli LEC001 (R), MHB, 37 °C, 20 h, OD600, min. three biological repeats): 2 µg/mL; Modal MIC ([11]; E. coli NCTC 12923 (S), MHB, ~5×10^5 CFU/mL, 37 °C, 20 h, OD600, min. three biological repeats): 0.0625 µg/mL; Modal MIC ([13]; S. aureus (MRSA) NCTC 13616 (R), MHB, 37 °C, 20 h, OD600, min. three biological repeats): > 128 µg/mL; Modal MIC [17]: 2 µg/mL; Modal MIC ([16]; P. aeruginosa NCTC 13437 (R), MHB, 37 °C, 20 h, OD600, min. three biological repeats): 4 µg/mL
